Here are results for two compounds from patent US9675617B2, “Tetrahydrofolates in combination with EGFR-inhibitors” (ISOFOL MEDICAL AB, priority 2012, dated 2017).

The conditions of data set [1]: in the body; no source or species given; cited from earlier work.
The subject of data set [2] is LoVo tumor cells. Kind of data set: Anti-tumoral efficacy in the colorectal adenocarcinoma xenograft model LoVo. It is filed as in vivo, NCr nu/nu mice. The method, then:
Study Design: A total of 50 female NCr nu/nu mice (10 per group) at the age of 8-12 weeks were injected with 1×10^7 LoVo tumor cells in 50% Matrigel sc in flank. After seven days they were administered intraperitoneal injections according to the schedule in table 2. Animals were monitored individually. The endpoint of the experiment was a tumor weight of 1000 mm^3 or 75 days, whichever came first. Responders could be followed longer. When the endpoint was reached, the animals were euthanized. Body weight (g) and tumor volume (mm^3) was measured on days 1, 2, 3, 4, 5, 7, 11, 14, 18, 21, 25, 28, 32, 35, 39, 42, 46, 49, 53, 56, 60, 63, 67, 70 and 74.

Take `CN1c2c(nc(N)[nH]c2=O)NCC1CNc1ccc(C(=O)N[C@@H](CCC(=O)O)C(=O)O)cc1` (stereo partly shown) [methyl-THF, 5-methyltetrahydrofolate]: in data set [1], the half life result was “approximately 5 hours”.

Consider `Nc1nc2c(c(=O)[nH]1)N1CN(c3ccc(C(=O)N[C@@H](CCC(=O)O)C(=O)O)cc3)CC1CN2` (stereo partly shown) [methylene-THF, 5,10-methylene tetrahydrofolate], for which, in data set [1], the half life entry is “approximately 20 min”. In addition, the “Median tumor volume over time (FIG. 2), in words” value in data set [2] (LoVo xenograft, days 1-74) is listed as “enhances the anti-tumor growth effect of cetuximab”. Also, the “Time to endpoint, Kaplan-Meier plot (FIG. 3), in words” value in data set [2] (endpoint: tumor weight of 1000 mm^3 or 75 days) is listed as “enhancing the beneficial effect of cetuximab”.
